According to PMC3969020 (Biochemistry, 2014):

Legend:
Assay type in all cases: biochemical
[1] = biological target: T1, Horse liver alcohol dehydrogenase (ADH), E isoenzyme (Equus caballus, UniProt P00327, V208A); experiment: product inhibition against NAD+
[2] = biological target: T2, Horse liver alcohol dehydrogenase (ADH), E isoenzyme (Equus caballus, UniProt P00327); experiment: product inhibition against NAD+
[3] = biological target: T2, Horse liver alcohol dehydrogenase (ADH), E isoenzyme; experiment: initial velocity and product inhibition kinetics
[4] = biological target: T1, Horse liver alcohol dehydrogenase (ADH), E isoenzyme; experiment: X-ray crystal structure, […] Å

T1 sequence (P00327 2-375 V208A): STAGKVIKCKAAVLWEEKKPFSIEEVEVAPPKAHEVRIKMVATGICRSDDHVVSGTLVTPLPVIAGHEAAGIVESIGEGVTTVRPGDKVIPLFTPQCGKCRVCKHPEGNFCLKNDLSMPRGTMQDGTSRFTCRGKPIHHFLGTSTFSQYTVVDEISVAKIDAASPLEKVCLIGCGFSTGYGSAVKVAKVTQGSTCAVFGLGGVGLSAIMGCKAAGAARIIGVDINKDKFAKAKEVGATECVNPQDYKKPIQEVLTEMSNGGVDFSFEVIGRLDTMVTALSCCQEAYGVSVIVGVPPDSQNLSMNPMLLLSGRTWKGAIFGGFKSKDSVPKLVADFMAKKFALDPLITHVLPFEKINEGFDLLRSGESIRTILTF
T2 sequence (P00327 2-375): as the sequence (P00327 2-375 V208A) above, with A207V counted along it

| SMILES | Ki [1] [µM] | Ki [2] [µM] | Ki [3] [µM] | Ki [4] [µM] |
| --- | --- | --- | --- | --- |
| NC(=O)C1=CN([C@@H]2O[C@H](COP(=O)(O)OP(=O)(O)OC[C@H]3O[C@@H](n4cnc5c(N)ncnc54)[C@H](O)[C@@H]3O)[C@@H](O)[C@H]2O)C=CC1 [NADH] | 0.39 ± 0.01 | 0.31 ± 0.02 | – | – |
| NC(=O)c1ccc[n+]([C@@H]2O[C@H](COP(=O)([O-])OP(=O)(O)OC[C@H]3O[C@@H](n4cnc5c(N)ncnc54)[C@H](O)[C@@H]3O)[C@@H](O)[C@H]2O)c1 [NAD^+] | – | – | 20 ± 5 | 59 ± 5 |
